According to patent US20090105245A1, “METHODS FOR TREATING MACULAR EDEMA AND OCULAR ANGIOGENESIS USING AN ANTI-INFLAMMATORY AGENT AND A RECEPTOR TYROSINE KINASE INHIBITOR” (priority 2006, published 2009):

Legend:
[1] = test system: laser-induced choroidal neovascularization (CNV) in the mouse; test: Mouse laser-induced choroidal neovascularization (CNV), prevention, intravitreal injection; type: in vivo
Description: Methods. CNV was generated by laser-induced rupture of Bruch's membrane. Briefly, 4 to 5 week old male C57BL/6J mice were anesthetized using intraperitoneal administration of ketamine hydrochloride (100 mg/kg) and xylazine (5 mg/kg) and the pupils of both eyes dilated with topical ocular instillation of 1% tropicamide and 2.5% Mydfin®. One drop of topical cellulose (Gonioscopic®) was used to lubricate the cornea. A hand-held cover slip was applied to the cornea and used as a contact lens to aid visualization of the fundus. Three to four retinal burns were placed in randomly assigned eye (right or left eye for each mouse) using the Alcon 532 nm EyeLite laser with a slit lamp delivery system. The laser burns were used to generate a rupture in Bruch's membrane, which was indicated opthalmoscopically by the formation of a bubble under the retina. Only mice with laser burns that produced three bubbles per eye were included in the study. Burns were typically placed at the 3, 6, 9 or 12 o'clock positions in the posterior pole of the retina, avoiding the branch retinal arteries and veins.
Each mouse was randomly assigned into one of the following treatment groups: noninjected controls, sham-injected controls, vehicle-injected mice, or one of three RTKi-injected groups. […]

[2] = test system: VEGF-induced retinal vascular permeability; test: VEGF-induced retinal vascular permeability in the rat (Evans blue), intravitreal injection; type: in vivo; conditions: 10 μl intravitreal
Description: METHODS: Adult Sprague-Dawley rats were anesthetized with intramuscular ketamine/xylazine and their pupils dilated with topical cycloplegics. Rats were randomly assigned to intravitreal injection groups of 0% 0.3%, 1.0%, and 3.0% RTKI and a positive control. Ten μl of each compound was intravitreally injected in each treatment eye (n=6 eyes per group). Three days following first intravitreal injection, all animals received an intravitreal injection of 10 μl 1400 ng hr VEGF in both eyes. Twenty-four hours post-injection of VEGF, intravenous infusion of 3% Evans blue dye was performed in all animals, where 50 mg/kg of Evans blue dye was injected via the lateral tail vein during general anesthesia. After the dye had circulated for 90 minutes, the rats were euthanized. The rats were then systemically perfused with balanced salt solution, and then both eyes of each rat were immediately enucleated and the retinas harvested using a surgical microscope. After measurement of the retinal wet weight, the Evans blue dye was extracted by placing the retina in a 0.2 ml formamide (Sigma) and then the homogenized and ultracentrifuged. Blood samples were centrifuged and the plasma diluted 100 fold in formamide. For both retina and plasma samples, 60 μl of supernatant was used to measure the Evans blue dye absorbance (ABS) with at 620/740 nm. The blood-retinal barrier breakdown and subsequent retinal vascular permeability as measured by dye absorbance were calculated as means ±s.e.m. of net ABS/wet weight/plasma ABS. A two-tailed Student's t-test were used for pair wise comparisons between OS and OD eyes in each group. One way ANOVA was used to determine an overall difference between treatment means, where P≦0.05 was considered significant.

Question: Which “CNV vs vehicle injected eyes” value ([1]; 0.3% RTKi, 5 ul intravitreal (P=0.082)) does the source give for Cc1ccc(F)c(NC(=O)Nc2ccc(-c3cccc4[nH]nc(N)c34)cc2)c1 [Compound 86, N-[4-[3-amino-1H-indazol-4-yl]phenyl]-N′-(2-fluoro-5-methylphenyl)urea] here?
Answer: Its value is “marginal statistical difference”.

Question: What about the “inhibition of laser-induced CNV” value ([1]; single intravitreal injection, mouse (FIG. 3)) of the same compound?
Answer: The value was “inhibits laser-induced choroidal neovascularization (CNV)”.

Question: What about the “decrease of retinal vascular permeability vs vehicle-injected eyes” value (“decrease” below) ([2]; 0.3% RTKi) of the same compound?
Answer: Its value is 50%.

Question: And the “decrease” value ([2]; 1.0% RTKi)?
Answer: The value was 61%.

Question: And the “decrease” value ([2]; 3% RTKi)?
Answer: The value was 53%.
